{"source": "patent US9777020B2", "about": "“Furo-3-carboxamide derivatives and methods of use” (AbbVie Inc., priority 2014, dated 2017)"}
{"molecular_target": "TrkA (Homo sapiens (Human), UniProt P04629)", "sequence (P04629 33-796)": "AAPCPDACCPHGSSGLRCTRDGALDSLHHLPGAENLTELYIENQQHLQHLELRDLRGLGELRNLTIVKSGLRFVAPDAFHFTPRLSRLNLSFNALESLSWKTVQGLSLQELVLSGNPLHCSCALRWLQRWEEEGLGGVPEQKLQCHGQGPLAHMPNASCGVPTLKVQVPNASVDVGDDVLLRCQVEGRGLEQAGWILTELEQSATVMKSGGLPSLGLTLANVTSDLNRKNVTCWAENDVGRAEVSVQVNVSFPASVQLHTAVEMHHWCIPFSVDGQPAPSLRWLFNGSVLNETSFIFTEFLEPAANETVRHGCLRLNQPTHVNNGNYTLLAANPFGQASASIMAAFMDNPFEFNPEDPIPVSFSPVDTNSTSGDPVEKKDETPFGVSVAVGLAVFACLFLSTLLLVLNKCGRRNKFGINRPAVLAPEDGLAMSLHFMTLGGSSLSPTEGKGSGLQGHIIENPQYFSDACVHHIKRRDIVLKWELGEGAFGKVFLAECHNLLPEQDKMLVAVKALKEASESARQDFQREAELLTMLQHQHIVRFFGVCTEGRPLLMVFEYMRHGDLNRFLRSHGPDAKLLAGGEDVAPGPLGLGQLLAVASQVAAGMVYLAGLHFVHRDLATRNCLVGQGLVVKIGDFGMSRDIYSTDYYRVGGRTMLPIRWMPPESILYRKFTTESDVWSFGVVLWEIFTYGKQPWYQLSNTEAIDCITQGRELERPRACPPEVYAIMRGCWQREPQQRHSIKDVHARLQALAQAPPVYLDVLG", "experiment": "TrkA kinase HTRF enzyme inhibition assay", "type": "biochemical", "conditions": "TrkA pre-incubated with 200 μM ATP", "how_it_was_run": "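HTRF ratio read-out of biotin-peptide (125 nM) phosphorylation, 1 h reaction after TrkA (2-10 nM) auto-activation with ATP (200 μM) for 20 min and 10 min compound pre-incubation in 50 mM HEPES pH 7.4 with MgCl2/MnCl2. Percent inhibition from initial rates in duplicate, fitted to single-site equation for IC50.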", "units": {"IC50": "µM"}}
{"smiles": "CCOc1nc(N2CCN(C(C)=O)CC2)ccc1NC(=O)c1coc2c1C(=O)N([C@H](C)CO)CC2", "note": "[Example 99, N-[6-(4-acetylpiperazin-1-yl)-2-ethoxypyridin-3-yl]-5-[(2R)-1-hydroxypropan-2-yl]-4-oxo-4,5,6,7-tetrahydrofuro[3,2-c]pyridine-3-carboxamide]", "IC50": 0.0033}
{"smiles": "CCOc1nc(N2CCN(C(C)=O)CC2)ccc1NC(=O)c1coc2c1C(=O)N([C@@H](C)COC(C)=O)CC2", "note": "[Example 100, (2S)-2-[3-{[6-(4-acetylpiperazin-1-yl)-2-ethoxypyridin-3-yl]carbamoyl}-4-oxo-6,7-dihydrofuro[3,2-c]pyridin-5(4H)-yl]propyl acetate]", "IC50": 0.0235}
{"smiles": "CCOc1nc(N2CCN(C(C)=O)CC2)ccc1NC(=O)c1coc2c1C(=O)N([C@@H](C)CO)CC2", "note": "[Example 101, N-[6-(4-acetylpiperazin-1-yl)-2-ethoxypyridin-3-yl]-5-[(2S)-1-hydroxypropan-2-yl]-4-oxo-4,5,6,7-tetrahydrofuro[3,2-c]pyridine-3-carboxamide]", "IC50": 0.0195}
{"smiles": "CCOc1nc(N2CCN(C(C)=O)CC2)ccc1NC(=O)c1coc2c1C(=O)N(C(C)(C)CO)CC2", "note": "[Example 102, N-[6-(4-acetylpiperazin-1-yl)-2-ethoxypyridin-3-yl]-5-(1-hydroxy-2-methylpropan-2-yl)-4-oxo-4,5,6,7-tetrahydrofuro[3,2-c]pyridine-3-carboxamide]", "IC50": 0.0127}
{"smiles": "CCOc1nc(N2CCN(C(C)=O)CC2)ccc1NC(=O)c1coc2c1C(=O)N(CC(C)(C)OC(C)=O)CC2", "note": "[Example 103, 1-[3-{[6-(4-acetylpiperazin-1-yl)-2-ethoxypyridin-3-yl]carbamoyl}-4-oxo-6,7-dihydrofuro[3,2-c]pyridin-5(4H)-yl]-2-methylpropan-2-yl acetate]", "IC50": 0.0169}
{"smiles": "CCOc1nc(N2CCN(C(C)=O)CC2)ccc1NC(=O)c1coc2c1C(=O)N(CC(C)(C)O)CC2", "note": "[Example 104, N-[6-(4-acetylpiperazin-1-yl)-2-ethoxypyridin-3-yl]-5-(2-hydroxy-2-methylpropyl)-4-oxo-4,5,6,7-tetrahydrofuro[3,2-c]pyridine-3-carboxamide]", "IC50": 0.006}
{"smiles": "CC(=O)N1CCN(c2ccc(NC(=O)c3coc4c3C(=O)NCC4)c(O[C@H]3CCOC3)n2)CC1", "note": "[Example 105, N-{6-(4-acetylpiperazin-1-yl)-2-[(3S)-tetrahydrofuran-3-yloxy]pyridin-3-yl}-4-oxo-4,5,6,7-tetrahydrofuro[3,2-c]pyridine-3-carboxamide]", "IC50": 0.0235}
{"smiles": "CC(C)(O)COc1nc(N2CCOCC2)ccc1NC(=O)c1coc2c1C(=O)NCC2", "note": "[Example 107, N-[2-(2-hydroxy-2-methylpropoxy)-6-(morpholin-4-yl)pyridin-3-yl]-4-oxo-4,5,6,7-tetrahydrofuro[3,2-c]pyridine-3-carboxamide]", "IC50": 0.0069}
{"smiles": "CCOc1nc(CC(=O)OC)ccc1NC(=O)c1coc2c1C(=O)NCC2", "note": "[Example 108, methyl(6-ethoxy-5-{[(4-oxo-4,5,6,7-tetrahydrofuro[3,2-c]pyridin-3-yl)carbonyl]amino}pyridin-2-yl)acetate]", "IC50": 0.226}
{"smiles": "CCOc1nc(CCO)ccc1NC(=O)c1coc2c1C(=O)NCC2", "note": "[Example 109, N-[2-ethoxy-6-(2-hydroxyethyl)pyridin-3-yl]-4-oxo-4,5,6,7-tetrahydrofuro[3,2-c]pyridine-3-carboxamide]", "IC50": 0.225}
{"smiles": "COc1nc(N2CCN(C(C)=O)CC2)ccc1NC(=O)c1coc2c1C(=O)CC1(CCOCC1)C2", "note": "[Example 110, N-[6-(4-acetylpiperazin-1-yl)-2-methoxypyridin-3-yl]-4-oxo-2′,3′,4,5′,6′,7-hexahydro-5H-spiro[1-benzofuran-6,4′-pyran]-3-carboxamide]", "IC50": 0.0392}
{"smiles": "CCOc1nc(N2CCN(C(C)=O)CC2)ccc1NC(=O)c1coc2c1C(=O)NC1(CCC1)C2", "note": "[Example 111, N-[6-(4-acetylpiperazin-1-yl)-2-ethoxypyridin-3-yl]-4′-oxo-4′,7′-dihydro-5′H-spiro[cyclobutane-1,6′-furo[3,2-c]pyridine]-3′-carboxamide]", "IC50": 0.0039}
{"smiles": "CCOc1nc(N2CCN(C(C)=O)CC2)ccc1NC(=O)c1coc2c1C(=O)NC1(CCCCC1)C2", "note": "[Example 112, N-[6-(4-acetylpiperazin-1-yl)-2-ethoxypyridin-3-yl]-4′-oxo-4′,7′-dihydro-5′H-spiro[cyclohexane-1,6′-furo[3,2-c]pyridine]-3′-carboxamide]", "IC50": 0.0273}
{"smiles": "CCOc1nc(N2CCN(C(C)=O)CC2)ccc1NC(=O)c1coc2c1C(=O)NC1(C2)CN(C(C)=O)C1", "note": "[Example 113, 1-acetyl-N-[6-(4-acetylpiperazin-1-yl)-2-ethoxypyridin-3-yl]-4′-oxo-4′,7′-dihydro-5′H-spiro[azetidine-3,6′-furo[3,2-c]pyridine]-3′-carboxamide]", "IC50": 0.0654}
{"smiles": "CCOc1nc(N2CCN(C(C)=O)CC2)ccc1NC(=O)c1coc2c1C(=O)NC1(COC1)C2", "note": "[Example 114, N-[6-(4-acetylpiperazin-1-yl)-2-ethoxypyridin-3-yl]-4-oxo-4,7-dihydro-5H-spiro[furo[3,2-c]pyridine-6,3′-oxetane]-3-carboxamide]", "IC50": 0.0072}
{"smiles": "CCOc1nc(N2CCN(C(C)=O)CC2)ccc1NC(=O)c1coc2c1C(=O)N[C@@H]([C@@H](C)O)C2", "note": "[Example 115, (6R)—N-[6-(4-acetylpiperazin-1-yl)-2-ethoxypyridin-3-yl]-6-[(1R)-1-hydroxyethyl]-4-oxo-4,5,6,7-tetrahydrofuro[3,2-c]pyridine-3-carboxamide]", "IC50": 0.0085}
{"smiles": "CCOc1nc(N2CCN(C(C)=O)CC2)ccc1NC(=O)c1coc2c1C(=O)N(CCO)C1(CCC1)C2", "note": "[Example 116, N-[6-(4-acetylpiperazin-1-yl)-2-ethoxypyridin-3-yl]-5′-(2-hydroxyethyl)-4′-oxo-4′,7′-dihydro-5′H-spiro[cyclobutane-1,6′-furo[3,2-c]pyridine]-3′-carboxamide]", "IC50": 0.0031}
{"smiles": "CCOc1nc(N2CCN(C(C)=O)CC2)ccc1NC(=O)c1coc2c1C(=O)NC1(CC1)C2", "note": "[Example 117, N-[6-(4-acetylpiperazin-1-yl)-2-ethoxypyridin-3-yl]-4′-oxo-4′,7′-dihydro-5′H-spiro[cyclopropane-1,6′-furo[3,2-c]pyridine]-3′-carboxamide]", "IC50": 0.0053}
{"smiles": "CCOc1nc(N2CCN(C(=NC#N)NC)CC2)ccc1NC(=O)c1coc2c1C(=O)NC1(CCC1)C2", "note": "[Example 118, N-{6-[4-(N′-cyano-N-methylcarbamimidoyl)piperazin-1-yl]-2-ethoxypyridin-3-yl}-4′-oxo-4′,7′-dihydro-5′H-spiro[cyclobutane-1,6′-furo[3,2-c]pyridine]-3′-carboxamide]", "IC50": 0.003}
{"smiles": "CCOc1nc(N2CCN(C(C)=O)CC2)ccc1NC(=O)c1coc2c1C(=O)N(CC(O)CO)C(C)(C)C2", "note": "(centres unmarked) [Example 119, N-[6-(4-acetylpiperazin-1-yl)-2-ethoxypyridin-3-yl]-5-(2,3-dihydroxypropyl)-6,6-dimethyl-4-oxo-4,5,6,7-tetrahydrofuro[3,2-c]pyridine-3-carboxamide]", "IC50": 0.0068}
{"smiles": "COc1cc(N2CCNCC2)ccc1NC(=O)c1coc2c1C(=O)NC(C)(C)C2", "note": "[Example 120, N-[2-methoxy-4-(piperazin-1-yl)phenyl]-6,6-dimethyl-4-oxo-4,5,6,7-tetrahydrofuro[3,2-c]pyridine-3-carboxamide]", "IC50": 0.028}
{"smiles": "COc1nc(N2CCN(C(C)=O)CC2)ccc1NC(=O)c1coc2c1C(=O)NC(C)(C)C2", "note": "[Example 122, N-[6-(4-acetylpiperazin-1-yl)-2-methoxypyridin-3-yl]-6,6-dimethyl-4-oxo-4,5,6,7-tetrahydrofuro[3,2-c]pyridine-3-carboxamide]", "IC50": 0.0141}
{"smiles": "COc1nc(N2CCN(C(=O)N3CCCC3)CC2)ccc1NC(=O)c1coc2c1C(=O)NC(C)(C)C2", "note": "[Example 123, N-{2-methoxy-6-[4-(pyrrolidin-1-ylcarbonyl)piperazin-1-yl]pyridin-3-yl}-6,6-dimethyl-4-oxo-4,5,6,7-tetrahydrofuro[3,2-c]pyridine-3-carboxamide]", "IC50": 0.0119}
{"smiles": "COc1cc(N2CCNCC2)ccc1NC(=O)c1coc2c1C(=O)NC(C)C2", "note": "(centres unmarked) [Example 124, N-[2-methoxy-4-(piperazin-1-yl)phenyl]-6-methyl-4-oxo-4,5,6,7-tetrahydrofuro[3,2-c]pyridine-3-carboxamide]", "IC50": 0.0737}
{"smiles": "COc1cc(N2CCN(S(C)(=O)=O)CC2)ccc1NC(=O)c1coc2c1C(=O)NC(C)(C)C2", "note": "[Example 125, N-{2-methoxy-4-[4-(methylsulfonyl)piperazin-1-yl]phenyl}-6,6-dimethyl-4-oxo-4,5,6,7-tetrahydrofuro[3,2-c]pyridine-3-carboxamide]", "IC50": 0.0359}
{"smiles": "CCOc1nc(N2CCNCC2)ccc1NC(=O)c1coc2c1C(=O)NC(C)(C)C2", "note": "[Example 127, N-[2-ethoxy-6-(piperazin-1-yl)pyridin-3-yl]-6,6-dimethyl-4-oxo-4,5,6,7-tetrahydrofuro[3,2-c]pyridine-3-carboxamide]", "IC50": 0.0132}
{"smiles": "CC(C)Oc1nc(N2C[C@H]3CCN[C@H]3C2)ccc1NC(=O)c1coc2c1C(=O)NC(C)(C)C2", "note": "[Example 129, N-{6-[(3 aR,6aR)-hexahydropyrrolo[3,4-b]pyrrol-5(1H)-yl]-2-isopropoxypyridin-3-yl}-6,6-dimethyl-4-oxo-4,5,6,7-tetrahydrofuro[3,2-c]pyridine-3-carboxamide]", "IC50": 0.0108}
{"smiles": "COc1nc(N2CC[C@@H]3CN(C)C[C@@H]32)ccc1NC(=O)c1coc2c1C(=O)NC(C)(C)C2", "note": "[Example 130, N-{2-methoxy-6-[(3aR,6aR)-5-methylhexahydropyrrolo[3,4-b]pyrrol-1 (2H)-yl]pyridin-3-yl}-6,6-dimethyl-4-oxo-4,5,6,7-tetrahydrofuro[3,2-c]pyridine-3-carboxamide]", "IC50": 0.0383}
{"smiles": "CC(C)Oc1nc(N2C[C@@H]3CCN(CCO)[C@@H]3C2)ccc1NC(=O)c1coc2c1C(=O)NC(C)(C)C2", "note": "[Example 131, N-{6-[(3aS,6aS)-1-(2-hydroxyethyl)hexahydropyrrolo[3,4-b]pyrrol-5(1H)-yl]-2-isopropoxypyridin-3-yl}-6,6-dimethyl-4-oxo-4,5,6,7-tetrahydrofuro[3,2-c]pyridine-3-carboxamide]", "IC50": 0.0981}
